Data taken from patent US20190119282A1, “IMIDAZOPYRIDAZINES USEFUL AS INHIBITORS OF THE PAR-2 SIGNALING PATHWAY” (Vertex Pharmaceuticals Incorporated, priority 2013, published 2019).
pIC50: −log10 of the molar value.

How the values were obtained:
[1] = target: T1, PAR2 (HT-29 cells, SLIGKV activation) (Homo sapiens, UniProt P55085); test: Ca FLIPR TETRA assay, ANTAGONIST mode, stimulation with 8 μM SLIGKV; assay type: cell-based; conditions: for pIC50: HT-29 cells
T1 construct: host or cells: HT-29 cells
T1 sequence (P55085 26-397): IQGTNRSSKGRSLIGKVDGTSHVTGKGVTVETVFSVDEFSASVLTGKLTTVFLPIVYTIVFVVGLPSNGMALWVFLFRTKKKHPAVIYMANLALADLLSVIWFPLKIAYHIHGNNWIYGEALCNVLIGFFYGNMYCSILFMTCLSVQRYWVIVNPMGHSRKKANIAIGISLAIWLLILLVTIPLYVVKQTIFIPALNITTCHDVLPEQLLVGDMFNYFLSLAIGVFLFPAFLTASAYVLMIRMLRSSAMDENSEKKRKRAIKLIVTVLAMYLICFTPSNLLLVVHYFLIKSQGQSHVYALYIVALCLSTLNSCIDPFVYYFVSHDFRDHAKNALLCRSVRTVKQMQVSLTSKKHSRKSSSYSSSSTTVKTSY
Summary of the method: (§1)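 FLIPR Tetra Ca2+ read-out in HT-29 cells, calcium 5 dye. Compound preincubation 30 min r.t., with an initial read for agonist activity. Final activator levels: SLIGKV 8 μM, thrombin 1 U/mL, trypsin 3.1 U/mL, UTP 0.6 μM.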

[2] = target: T2, PAR2 (HT-29 cells, trypsin activation) (Homo sapiens, UniProt P55085); test: Ca FLIPR TETRA assay, ANTAGONIST mode, stimulation with 3.1 U/mL trypsin; assay type: cell-based; conditions: HT-29 cells
T2 construct: host or cells: HT-29 cells
T2 sequence (P55085 26-397): T1 sequence (P55085 26-397)
Summary of the method: as §1

[3] = test system: Thrombin-stimulated Ca2+ response in HT-29 cells; test: Ca FLIPR TETRA assay, ANTAGONIST mode, stimulation with 1 U/mL Thrombin; assay type: cell-based, human; conditions: for pIC50: Homo sapiens, HT-29 cells
Summary of the method: as §1

[4] = test system: UTP-stimulated Ca2+ response in HT-29 cells; test: Ca FLIPR TETRA assay, ANTAGONIST mode, stimulation with 0.6 μM UTP; assay type: cell-based, human; conditions: Homo sapiens, HT-29 cells
Summary of the method: as §1

[5] = antagonist mode, stimulation with 8 μM SLIGKV
[6] = antagonist mode, stimulation with 3.1 U/mL trypsin
[7] = antagonist mode, stimulation with 1 U/mL Thrombin
[8] = antagonist mode, stimulation with 0.6 μM UTP
[9] = stimulation with 3.1 U/mL trypsin
[10] = stimulation with 1 U/mL Thrombin
[11] = antagonist mode, 3.1 U/mL trypsin
[12] = antagonist mode, 1 U/mL Thrombin

SMILES	pIC50 [1, 5]	pIC50 [2, 6]	pIC50 [3, 7]	pIC50 [4, 8]	pIC50 ([1]; stimulation with 8 μM SLIGKV)	pIC50 [2, 9]	pIC50 [3, 10]	pIC50 ([4]; stimulation with 0.6 μM UTP)	further results
CC(C)c1cc(-c2ccc(C(F)(F)F)c(F)c2)nn2cc(C(=O)N3CCNC(=O)C3(C)C)nc12 [Compound I-273]	9.15	8.92	< 6.00	< 6.00	–	–	–	–	–
CC(C)c1cc(-c2ccc(F)cc2)nn2cc(C(=O)N3CCN(C(=O)[C@H](O)CC4CC4)[C@@H](C)C3)nc12 [Compound I-171]	–	–	–	–	8.52	8.30	4.82	4.82	–
CC1(c2cc(-c3ccc(F)cc3)nn3cc(C(=O)N4CCN(C(=O)C5(O)CCC5)CC4(C)C)nc23)CC1 [Compound I-33, [6-(4-fluorophenyl)-8-(1-methylcyclopropyl)imidazo[1,2-b]pyridazin-2-yl]-[4-(1-hydroxycyclobutanecarbonyl)-2,2-dimethyl-piperazin-1-yl]methanone]	–	–	–	–	7.35	7.85	< 4.30	< 4.30	–
CCOC(=O)[C@@H]1CCCN(C(=O)c2cn3nc(-c4ccc(F)cc4)cc(C(F)(F)F)c3n2)[C@@H]1C [Compound I-75]	–	–	–	–	5.96	5.92	5.80	5.66	–
CC(C)(C)c1cc(-c2ccc(F)cc2)nn2cc(C(=O)N3CN(C(C)(C)C)C(=O)C3(C)C)nc12 [Compound I-564]	–	–	–	–	–	–	–	–	pIC50 ([1]; antagonist mode, 8 μM SLIGKV): 6.90; pIC50 [2, 11]: 6.71; pIC50 [3, 12]: < 6.00; pIC50 ([4]; antagonist mode, 0.6 μM UTP): < 6.00
O=C(OCc1ccccc1)N1CCN(C(=O)c2cn3nc(-c4ccc(F)cc4)cc(C(F)(F)F)c3n2)CC1 [Compound I-53]	–	–	–	–	–	4.68	< 4.30	< 4.30	SLIGKV % @ concentration ([1]; @ 5.6 (μM)): 55% @ 5.6
CC(C)c1cc(-c2ccc(F)cc2)nn2cc(C(=O)N3CCN(C(=O)C4(O)CCC4)CC3(C)C)nc12 [Compound I-19, [6-(4-Fluorophenyl)-8-isopropyl-imidazo[1,2-b]pyridazin-2-yl]-[4-(1-hydroxycyclobutanecarbonyl)-2,2-dimethyl-piperazin-1-yl]methanone]	–	–	–	–	7.60	7.25	–	4.30	Thrombin % @ concentration ([3]; @ 50 (μM)): 62% @ 50
Cc1cc(-c2cc(C(C)C)c3nc(C(=O)N4CCN(C(=O)c5ccn[nH]5)CC4(C)C)cn3n2)ccc1F [Compound I-261]	8.46	8.19	< 6.00	< 6.00	–	–	–	–	–
CC(C)(C)c1cc(-c2ccc(F)cc2)nn2cc(C(=O)N3CCN(C(=O)C(C)(O)C(F)(F)F)CC3(C)C)nc12 (stereo not drawn) [Compound I-317]	8.47	8.54	< 6.00	< 6.00	–	–	–	–	–
Cc1ccc(-c2cc(C(C)C)c3nc(C(=O)N4CCNC(=O)C4(C)C)cn3n2)cc1F [Compound I-301]	8.52	8.52	< 6.00	< 6.00	–	–	–	–	–
CC(C)c1cc(-c2ccc(F)cc2)nn2cc(C(=O)N3CCOCC3(C)C)nc12 [Compound I-120]	–	–	–	–	6.89	6.00	4.70	4.62	–
CC(C)(C)c1cc(-c2ccc(F)cc2)nn2cc(C(=O)N3CCN(C(=O)c4n[nH]c(=O)[nH]4)CC3(C)C)nc12 [Compound I-357]	8.48	8.36	< 6.00	6.05	–	–	–	–	–
CC1(C)CN(C(=O)c2ncc[nH]2)CCN1C(=O)c1cn2nc(-c3ccc(F)cc3)cc(C(F)(F)F)c2n1 [Compound I-270]	7.32	7.15	< 6.00	< 6.00	–	–	–	–	–
CC(C)c1cc(-c2ccc(F)cc2)nn2cc(C(=O)N3CCN(C(=O)C(C)(O)C(F)(F)F)CC3(C)C)nc12 (stereo not drawn) [Compound I-313]	7.82	7.94	< 6.00	< 6.00	–	–	–	–	–
CC(C)C(O)C(=O)N1CCN(C(=O)c2cn3nc(-c4ccc(F)cc4)cc(C4CC4)c3n2)C(C)(C)C1 (stereo not drawn) [Compound I-22, 1-[4-[8-cyclopropyl-6-(4-fluorophenyl)imidazo[1,2-b]pyridazine-2-carbonyl]-3,3-dimethyl-piperazin-1-yl]-2-hydroxy-3-methyl-butan-1-one]	–	–	–	–	8.15	7.85	4.68	4.60	–
CC(C)c1cc(C#CC2CC2)nn2cc(C(=O)N3CCN(C(=O)C4(O)CCC4)CC3(C)C)nc12 [Compound I-42, [6-(2-Cyclopropylethynyl)-8-isopropyl-imidazo[1,2-b]pyridazin-2-yl]-[4-(1-hydroxycyclobutanecarbonyl)-2,2-dimethyl-piperazin-1-yl]methanone]	–	–	–	–	5.66	5.28	4.49	4.39	–
Cc1ccc(-c2cc(C(C)C)c3nc(C(=O)N4CCN(C(=O)c5ccn[nH]5)CC4(C)C)cn3n2)cc1 [Compound I-255]	8.44	8.42	< 6.00	< 6.00	–	–	–	–	–
CC(O)CC(=O)N1CCN(C(=O)c2cn3nc(-c4ccc(F)cc4)cc(C(C)C)c3n2)C[C@@H]1C (stereo partly drawn) [Compound I-123]	–	–	–	–	6.70	6.47	< 4.30	< 4.30	–
CC(C)c1cc(-c2ccc(F)cc2)nn2cc(C(=O)N3CCN(C(=O)CC4CCOC4)[C@@H](C)C3)nc12 (stereo partly drawn) [Compound I-145]	–	–	–	–	7.14	6.48	4.62	4.64	–
CC(C)c1cc(-c2ccc(F)cc2)nn2cc(C(=O)N3CCN(C(=O)c4ccncc4)CC3(C)C)nc12 [Compound I-308]	7.55	7.47	< 6.00	< 6.00	–	–	–	–	–
CC(C)c1cc(-c2ccc(F)c(C(F)(F)F)c2)nn2cc(C(=O)N3CCN(C(=O)C(C)(C)O)CC3(C)C)nc12 [Compound I-222]	6.96	6.69	< 6.00	< 6.00	–	–	–	–	–
CC(C)(C)c1cc(-c2ccc(F)cc2)nn2cc(C(=O)N3CCN(C(=O)/C=C/C(=O)O)CC3(C)C)nc12 [Compound I-558]	–	–	–	–	–	–	–	–	pIC50 ([1]; antagonist mode, 8 μM SLIGKV): 7.73; pIC50 [2, 11]: 7.36; pIC50 [3, 12]: < 6.00; pIC50 ([4]; antagonist mode, 0.6 μM UTP): < 6.00
CC(C)c1cc(-c2ccc(F)cc2)nn2cc(C(=O)N3CCN(C(=O)c4cn[nH]c4)CC3(C)C)nc12 [Compound I-327]	8.25	8.23	< 6.00	< 6.00	–	–	–	–	–
COC(=O)[C@@H]1CCN(C(=O)c2cn3nc(-c4ccc(F)cc4)cc(C)c3n2)C[C@@H]1C [Compound I-10, (3R,4R)-Methyl 1-(6-(4-fluorophenyl)-8-methylimidazo[1,2-b]pyridazine-2-carbonyl)-3-methylpiperidine-4-carboxylate]	–	–	–	–	6.37	5.96	4.80	4.74	–
CC(C)(C)c1cc(-c2ccc(C(F)F)cc2)nn2cc(C(=O)N3CCNC(=O)C3(C)C)nc12 [Compound I-349]	8.52	8.59	< 6.00	< 6.00	–	–	–	–	–

Further lines, with some results ahead:

pIC50 [1, 5]	pIC50 [2, 6]	pIC50 [3, 7]	pIC50 [4, 8]	pIC50 ([1]; stimulation with 8 μM SLIGKV)	pIC50 [2, 9]	pIC50 [3, 10]	pIC50 ([4]; stimulation with 0.6 μM UTP)	SMILES	further results
6.77	6.74	< 6.00	< 6.00	–	–	–	–	Cc1cc(C2=Nn3cc(C(=O)N4CCNC(=O)C4(C)C)nc3C(C(C)C)C2)ccc1F (stereo not drawn) [Compound I-447]	–
8.66	8.37	< 6.00	< 6.00	–	–	–	–	Cc1nnc(C(=O)N2CCN(C(=O)c3cn4nc(-c5ccc(F)c(C)c5)cc(C(C)(C)C)c4n3)C(C)(C)C2)o1 [Compound I-385]	–
7.89	7.51	< 6.00	< 6.00	–	–	–	–	CC(C)(F)c1cc(-c2ccc(F)cc2)nn2cc(C(=O)N3CCNC(=O)C3(C)C)nc12 [Compound I-362]	–
8.17	8.06	< 6.00	< 6.00	–	–	–	–	CC(C)(C)c1cc(-c2ccc(F)cc2)nn2cc(C(=O)N3CCOC(=O)C3(C)C)nc12 [Compound I-510]	–
9.15	8.92	5.49	5.67	–	–	–	–	Cc1n[nH]c(C(=O)N2CCN(C(=O)c3cn4nc(-c5ccc(F)c(Cl)c5)cc(C(C)(C)C)c4n3)C(C)(C)C2)n1 [Compound I-468]	–
9.52	9.52	< 6.00	< 6.00	–	–	–	–	CC(C)(C)c1cc(-c2ccc(F)c(Cl)c2)nn2cc(C(=O)N3CCN(C(=O)[C@H]4CC[C@@H](C(=O)O)CC4)CC3(C)C)nc12 [Compound I-487]	–
8.19	8.00	6.15	< 6.00	–	–	–	–	Cc1cccc(-c2cc(C(C)(C)C)c3nc(C(=O)N4CCN(C(=O)c5ncccn5)CC4(C)C)cn3n2)c1 [Compound I-412]	–
9.52	9.30	< 6.00	< 6.00	–	–	–	–	Cc1ccc(-c2cc(C(C)(C)C)c3nc(C(=O)N4CCN(C(=O)[C@H]5C[C@@](C)(O)C5)CC4(C)C)cn3n2)cc1F [Compound I-415]	–
